Entries after “also recorded” stand apart in the source; their conditions may differ. Read-outs that look alike come from different tables or passages of the source.
How the values were obtained:
purified human PMN MMP-8 = purified human PMN MMP-8 (Homo sapiens (Human), UniProt P22894); assay: MMP-8 inhibition, synthetic octapeptide substrate, tripeptide product by HPLC; assay type: biochemical
[1] = target: MMP-9 (human leukocyte gelatinase) (Homo sapiens (Human), UniProt P14780); assay: MMP-9 inhibition in vitro, octapeptide/HPLC; assay type: biochemical
MMP-9 (human leukocyte gelatinase), sequence (P14780 94-707): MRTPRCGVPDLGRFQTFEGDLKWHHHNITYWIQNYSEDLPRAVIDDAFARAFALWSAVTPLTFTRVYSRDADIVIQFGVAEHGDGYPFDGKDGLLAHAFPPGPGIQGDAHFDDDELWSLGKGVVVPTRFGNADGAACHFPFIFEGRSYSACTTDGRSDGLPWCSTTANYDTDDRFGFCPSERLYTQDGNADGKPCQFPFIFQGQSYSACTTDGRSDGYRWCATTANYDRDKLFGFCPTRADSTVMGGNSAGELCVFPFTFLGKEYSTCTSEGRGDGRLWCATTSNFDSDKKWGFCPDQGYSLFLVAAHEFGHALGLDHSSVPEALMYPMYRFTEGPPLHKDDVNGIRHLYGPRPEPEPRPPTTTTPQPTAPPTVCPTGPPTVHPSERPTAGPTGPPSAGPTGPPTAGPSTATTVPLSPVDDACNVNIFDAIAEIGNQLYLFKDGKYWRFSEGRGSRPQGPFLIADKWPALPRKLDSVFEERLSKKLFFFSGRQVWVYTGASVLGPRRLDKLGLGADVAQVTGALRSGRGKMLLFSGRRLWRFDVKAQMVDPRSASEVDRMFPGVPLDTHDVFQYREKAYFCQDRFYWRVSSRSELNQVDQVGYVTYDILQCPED
Text: In contrast all three chemically-modified curcumins at 100 μm final concentration inhibited gelatinase activity by 68-100% (FIG. 6 and Table 6).

[2] = target: chromatographically-purified MMP-2 (Homo sapiens (Human), UniProt P08253); assay: MMP-2 inhibition in vitro, octapeptide/HPLC; assay type: biochemical; details: for Ratio = IC50 test compound/IC50 standard, MMP-2: standard 1,10-phenanthroline
chromatographically-purified MMP-2, sequence (P08253 110-660): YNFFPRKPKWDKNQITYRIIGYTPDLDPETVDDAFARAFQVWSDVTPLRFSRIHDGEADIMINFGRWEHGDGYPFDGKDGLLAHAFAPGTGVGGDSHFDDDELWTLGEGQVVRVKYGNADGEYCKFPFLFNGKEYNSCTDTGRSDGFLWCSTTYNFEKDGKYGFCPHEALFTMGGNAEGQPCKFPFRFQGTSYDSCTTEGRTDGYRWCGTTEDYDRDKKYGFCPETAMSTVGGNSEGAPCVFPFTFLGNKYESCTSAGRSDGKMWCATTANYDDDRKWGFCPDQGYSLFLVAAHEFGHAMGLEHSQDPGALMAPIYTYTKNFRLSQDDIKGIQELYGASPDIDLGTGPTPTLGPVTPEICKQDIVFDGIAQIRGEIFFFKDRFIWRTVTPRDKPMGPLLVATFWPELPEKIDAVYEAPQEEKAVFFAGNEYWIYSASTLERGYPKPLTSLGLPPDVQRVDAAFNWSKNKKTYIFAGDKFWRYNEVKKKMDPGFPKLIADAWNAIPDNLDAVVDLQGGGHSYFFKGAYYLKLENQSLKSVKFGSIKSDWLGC

[3] = target: chromatographically-purified MMP-13 (Collagenase-3) (Homo sapiens (Human), UniProt P45452); assay: MMP-13 inhibition in vitro, octapeptide/HPLC; assay type: biochemical; details: for Ratio = IC50 test compound/IC50 standard, MMP-13: standard 1,10-phenanthroline
[4] = Solubility in aqueous solutions; assay type: physicochemical
[5] = system: neonatal rat ventricular myocytes; assay: Hydrogen peroxide induced LDH release; assay type: cell-based; details: 10 μM, H2O2 100 μM
Procedure: Test compounds and concentrations (MMP inhibitors, MMPi): • 1. GM-6001: 10 μM • 2. ONO-4817: 10 μM • 3.
Neonatal rat ventricular myocytes, serum starved for 24 h, were treated with the inhibitors 1 h prior to the addition of 100 μM of hydrogen peroxide (Sigma). LDH release in the conditioned media was quantified using CytoTox-ONE Homogeneous Membrane Integrity Assay reagent (Promega) at the indicated time points.

human monocytes [6] = assay: Cytotoxicity in human monocytes (MTS); assay type: cell-based
Procedure: (§1) Briefly, human peripheral blood monocytes (HMs) were isolated from a leukocyte concentrate by density gradient centrifugation (Lymphoprep) and the isolated HMs cultured (2 h, 37° C.) to remove non-adherent cells. The adherent HMs were cultured for 18 h (1×10^6 cells/well, 24-well plates)±endotoxin (LPS)±different compounds dissolved in DMSO (the final concentration of DMSO in the RPMI serum-free culture media with Pen./Strep. antibiotics was no greater than 0.5%). After incubation, the proinflammatory cytokines, TNFα, IL-1β, MCP-1 and IL-6 were measured in the conditioned media by ELISA and cytotoxicity was assessed by measuring the absorbance (490 nm) of formazan produced by reduction of MTS. The HMs alone ±0.1-0.5% DMSO produced minimal levels of these pro-inflammatory cytokines. However, addition of 100 ng/ml or 10 μg/ml of LPS both dramatically stimulated cytokine production.

[7] = Extractability/recovery from human serum by HPLC
Procedure: Detection of compounds & extractability/recovery from human serum (for future use to determine in vivo pharmacokinetics) was achieved using HPLC. The HPLC detection method is briefly described herein. 50 μl of buffer or human serum containing 166.67 μM, 16.67 μM and 1.67 μM of the compounds were incubated with 100 μl pre-cooled (−10° C.) extraction solvent containing CAN-MeOH-0.5M oxalic acid at a ratio of 60:30:10. The mixture was vortexed and centrifuged at 10,000 rpm for 10 min. The supernatant was then aliquoted and injected into an HPLC for analysis. Stock solutions of the compounds were made 100× in DMSO, then further diluted with buffer or serum.

TNF-α = TNF-α production by LPS-stimulated monocytes (ELISA); assay type: cell-based, human
Procedure: as §1

MMP-2 = MMP-2 (Mus musculus (Mouse), UniProt P33434); details: 15 μM; cited from earlier work
human monocytes [8] = assay: Cytotoxicity in human monocytes (MTS); assay type: cell-based; remark: listed apart in the source

purified human PMN MMP-8, sequence (P22894 101-467): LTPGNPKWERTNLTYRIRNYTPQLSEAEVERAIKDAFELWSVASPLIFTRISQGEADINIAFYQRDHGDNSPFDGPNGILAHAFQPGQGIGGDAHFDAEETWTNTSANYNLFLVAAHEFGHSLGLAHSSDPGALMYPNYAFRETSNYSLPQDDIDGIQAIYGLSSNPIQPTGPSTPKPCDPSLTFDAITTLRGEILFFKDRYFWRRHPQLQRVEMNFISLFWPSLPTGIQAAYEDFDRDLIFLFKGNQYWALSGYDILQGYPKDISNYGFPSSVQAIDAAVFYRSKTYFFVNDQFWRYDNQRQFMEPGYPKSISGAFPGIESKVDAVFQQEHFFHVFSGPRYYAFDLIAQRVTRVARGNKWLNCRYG

| Compound | IC50 [1] [µM] | IC50 ([2]; read-out: IC50 MMP-2) [µM] | Ratio = IC50 test compound/IC50 standard, MMP-2 [2] | IC50 [3] [µM] | Ratio = IC50 test compound/IC50 standard, MMP-13 [3] | also measured |
| --- | --- | --- | --- | --- | --- | --- |
| c1cnc2c(c1)ccc1cccnc12 [1,10-O-phenanthroline, reference compound] | 9 | 70 | 1.0 | 4 | 1.0 | IC50 (purified human PMN MMP-8; Table 1 experiments, read-out: IC50 against purified hMMP-8): 10 to 35 µM; Ratio of each IC50 to IC50 of 1,10-O-phenanthroline (purified human PMN MMP-8; hMMP-8): 1 = 35 μM 1 = 10 μM |
| COC(=O)C(C(=O)/C=C/c1ccccc1)C(=O)/C=C/c1ccccc1 [Compound 2] | – | – | – | – | – | IC50 against purified hMMP-8 (purified human PMN MMP-8; Table 1 experiments): did not show a dose response; also recorded: No dose response |
| COC(=O)C(C(=O)/C=C/c1ccc(O)cc1)C(=O)/C=C/c1ccc(O)cc1 [Compound 3, 1,7-Bis(4-hydroxyphenyl)-4-methoxycarbonylhepta-1E,6E-dien-3,5-dione] | 6 | 70 | 1.0 | 8 | 2.0 | IC50 (purified human PMN MMP-8; Example 7 experiment, 1 mM Ca++, 37° C., read-out: IC50, human neutrophil collagenase (MMP-8)): ≤ 5 µM; Solubility in aqueous solutions (comparative) [4]: more soluble in aqueous solutions than compound 1 |
| COc1cc(/C=C/C(=O)CC(=O)/C=C/c2ccc(N(C)C)cc2)ccc1O [Compound 4] | 17 | > 250 | >3.6 | 250 | 62.5 | – |
| COc1cc(/C=C/C(=O)C(C(=O)/C=C/c2ccc(O)c(OC)c2)C(=O)Nc2ccccc2)ccc1O [Compound 6, 1,7-Bis(4-hydroxy-3-methoxyphenyl)-4-N-phenylaminocarbonylhepta-1E,6E-dien-3,5-dione] | – | 85 | – | – | – | – |
| O=C(/C=C/c1ccc(O)cc1)C(C(=O)/C=C/c1ccc(O)cc1)C(=O)Nc1ccccc1 [Compound 7, 1,7-Bis(4-hydroxyphenyl)-4-N-phenylaminocarbonylhepta-1E,6E-dien-3,5-dione] | – | 125 | 1.8 | < 1 | <0.3 | – |
| CN(C)c1ccc(/C=C/C(=O)C(C(=O)/C=C/c2ccc(N(C)C)cc2)C(=O)Nc2ccccc2)cc1 [Compound 8, 1,7-Bis(4-dimethylaminophenyl)-4-N-phenylaminocarbonylhepta-1E,6E-dien-3,5-dione] | – | – | – | 45 | 11.3 | IC50 MMP-2 (μM) [2]: Unmeasurable* |
| CNC(=O)[C@H](Cc1c[nH]c2ccccc12)NC(=O)[C@@H](CC(=O)NO)CC(C)C [GM-6001, reference compound] | – | – | – | – | – | Effect on LDH release [5]: did not affect LDH release |
| CCOCOC[C@H](C[C@H](C)C(=O)NO)NC(=O)c1ccc(Oc2ccccc2)cc1 [ONO-4817, reference compound] | – | – | – | – | – | Effect on LDH release [5]: did not affect LDH release |
| COc1cc(/C=C/C(=O)CC(=O)/C=C/c2ccc(O)c(OC)c2)ccc1O [curcumin] | 29 | – | – | – | – | Cytotoxicity Monocytes @ 18 h incubation (human monocytes [6]; 10 uM): 10 uM- 0%; Cytotoxicity Monocytes @ 18 h incubation (human monocytes [6]; 20 uM): 20 uM- 20%; Cytotoxicity Monocytes @ 18 h incubation (human monocytes [6]; 50 uM): 50 uM- 77%; Cytotoxicity in human monocyte culture (human monocytes [6]; 50 and 100 μM): significant cytotoxicity; Recovery from human serum ([7]; HPLC after solvent extraction): 83-94%; recovery ([7]; human, human serum): 83 to 94%; Solubility in aqueous solutions (comparative) [4]: insoluble; Maximum Inhibition At 100 μM compound, MMP-9 ([1]; 100 μM): 58%; Decrease of TNFα production by endotoxin-stimulated human monocytes (TNF-α; 10 and 20 μM): no effect; Decrease of TNFα production by endotoxin-stimulated human monocytes (TNF-α; 50 and 100 μM): 80-90%; IC50 [2]: 85 µM; Effect on MMP-2 activity (MMP-2): significant inhibitory effect; Cytotoxicity Monocytes @ 5 h incubation (human monocytes [8]; 10 uM): 10 uM- 0%; Cytotoxicity Monocytes @ 5 h incubation (human monocytes [8]; 20 uM): 20 uM- 20%; Cytotoxicity Monocytes @ 5 h incubation (human monocytes [8]; 50 uM): 50 uM- 50% |
